# Biological target: Nicotinic acetylcholine receptor (Rattus leucopus, UniProt Q62594)
# Sequence (Q62594 whole entry): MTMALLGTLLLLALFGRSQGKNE
row,Compound,Ki [µM]
1,CN1C(=O)CCC1c1cccnc1 (configuration not stated) [CAS_21906],5
2,C=C(C=O)C[C@H]1C[C@H](O)[C@]2(C)O[C@@H]3C[C@@H]4O[C@@H]5C[C@]6(C)O[C@]7(C)CC[C@@H]8O[C@@H]9C[C@]%10(C)O[C@@H]%11C(C)=CC(=O)O[C@H]%11C[C@H]%10O[C@H]9C[C@@H](C)[C@H]8O[C@H]7C[C@H]6O[C@@]5(C)C/C=C\[C@H]4O[C@H]3C[C@H]2O1,> 10
3,C[N+](C)(C)CCCCCCCCCC[N+](C)(C)C [Decamethonium Iodide],3.13
4,COc1cc(CC(C)N)cc(OC)c1OC (configuration not stated),0.375
5,CN1[C@@H](C[C@@H](O)c2ccccc2)CCC[C@H]1CC(=O)c1ccccc1 [Lobeline],0.009
6,C[N+](C)(C)CCCCCC[N+](C)(C)C [Hexamethoniumdibromide],> 10
7,"COc1cc2c3cc1Oc1cc(ccc1O)C[C@@H]1c4c(cc(OC)c(O)c4Oc4ccc(cc4)C[C@@H]3N(C)CC2)CC[N+]1(C)C [Tubocurarine,d]",> 10

# — BindingDB's records for PubMed 3702863 (R. J. Reynolds Tobacco, 1986)
